In publication PMC12267702, “Harvest time and soil-plant relationship effects on phytochemical constituency and biological activities of psidium guajava L. leaves” (Scientific Reports, 2025):
Marks after values point to notes of the source that are not given here. Blank lines part the entries; values can stand above or below the molecule they belong to.

Key:
Format in all cases: biochemical
[1] = biological target: T1, 5-LOX enzyme (human recombinant) (Homo sapiens, UniProt P09917); assay: 5-LOX enzyme inhibition assay (5-LOX kit)
T1 construct: purchased Sigma-Aldrich
T1 sequence (P09917 1-674): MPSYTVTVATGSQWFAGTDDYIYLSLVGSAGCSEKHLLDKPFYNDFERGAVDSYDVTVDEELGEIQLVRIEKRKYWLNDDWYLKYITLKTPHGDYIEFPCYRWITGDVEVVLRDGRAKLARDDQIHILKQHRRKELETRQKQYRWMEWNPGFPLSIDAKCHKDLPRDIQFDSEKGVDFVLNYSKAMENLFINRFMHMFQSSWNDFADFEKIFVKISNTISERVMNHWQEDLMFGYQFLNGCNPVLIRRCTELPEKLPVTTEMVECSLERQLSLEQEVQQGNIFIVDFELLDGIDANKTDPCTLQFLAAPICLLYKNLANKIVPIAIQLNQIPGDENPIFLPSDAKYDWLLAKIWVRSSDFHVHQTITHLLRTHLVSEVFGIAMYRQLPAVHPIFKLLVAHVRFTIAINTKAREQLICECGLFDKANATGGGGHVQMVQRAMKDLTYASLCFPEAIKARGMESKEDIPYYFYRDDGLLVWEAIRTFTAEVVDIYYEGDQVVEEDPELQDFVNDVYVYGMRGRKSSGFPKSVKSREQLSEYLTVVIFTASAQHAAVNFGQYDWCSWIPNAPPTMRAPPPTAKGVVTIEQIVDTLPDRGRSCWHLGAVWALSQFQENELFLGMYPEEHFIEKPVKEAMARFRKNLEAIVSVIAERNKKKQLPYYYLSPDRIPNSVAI

[2] = tested on: α-glucosidase; assay: α-glucosidase inhibition (in vitro anti-diabetic activity)
Description: (§1) The anti-diabetic effects of the ethyl acetate fraction from dried P. guajava leaves, collected in March and August, were compared in vitro. This comparison involved measuring the inhibition of carbohydrate hydrolyzing enzymes, including α-amylase, α-glucosidase, and β-galactosidase, as detailed in Naguib et al.[28].

[3] = tested on: α-amylase; assay: α-amylase inhibition (in vitro anti-diabetic activity)
Description: as §1

[4] = tested on: β-galactosidase; assay: β-galactosidase inhibition (in vitro anti-diabetic activity)
Description: as §1

[5] = DPPH free radical scavenging assay
Procedure: (§2) Two distinct antioxidant assays were performed to evaluate the radical scavenging potential of the ethyl acetate fraction obtained from dried P. guajava leaves collected in March and August. […] Ascorbic acid served as the reference standard.

[6] = ABTS free radical scavenging assay
Procedure: as §2

inhibition at 1 µg/mL ([1]; 1 µg/ml): 40.62 ± 0.08% | inhibition at 10 µg/mL ([1]; 10 µg/ml): 61.39 ± 0.14% | inhibition at 100 µg/mL ([1]; 100 µg/ml): 79.42 ± 0.13%
Structure (SMILES): CC(c1cc2ccccc2s1)N(O)C(N)=O (stereo not drawn) [Zileuton]

Structure (SMILES): C[C@H]1O[C@H](O[C@H]2[C@H](O)[C@@H](O)[C@@H](O[C@H]3[C@H](O)[C@@H](O)C(O)O[C@@H]3CO)O[C@@H]2CO)[C@H](O)[C@@H](O)[C@@H]1N[C@H]1C=C(CO)[C@@H](O)[C@H](O)[C@H]1O (stereo partly drawn) [Acarbose]
α-glucosidase Inhibition % ([2]; 10 µg/mL): 41.89 ± 0.10^c % | α-glucosidase Inhibition % ([2]; 50 µg/mL): 80.36 ± 0.08^d % | α-glucosidase Inhibition % ([2]; 100 µg/mL): 89.57 ± 0.15^f % | α-amylase Inhibition % ([3]; 10 µg/mL): 38.57 ± 0.17^e % | α-amylase Inhibition % ([3]; 50 µg/mL): 79.54 ± 0.12^d % | α-amylase Inhibition % ([3]; 100 µg/mL): 86.31 ± 0.09^f % | β-galactosidase Inhibition % ([4]; 10 µg/mL): 43.78 ± 0.12^e % | β-galactosidase Inhibition % ([4]; 50 µg/mL): 83.72 ± 0.09^f % | β-galactosidase Inhibition % ([4]; 100 µg/mL): 91.40 ± 0.10^g %

Structure (SMILES): O=C1O[C@H]([C@@H](O)CO)C(O)=C1O [Ascorbic acid]
DPPH Inhibition percentages (%) ([5]; 10 µg/ml): 73.12 ± 0.15^g % | DPPH Inhibition percentages (%) ([5]; 50 µg/ml): 82.47 ± 0.13^h % | DPPH Inhibition percentages (%) ([5]; 100 µg/ml): 90.52 ± 0.09^i % | ABTS Inhibition percentages (%) ([6]; 10 µg/ml): 76.02 ± 0.11^g % | ABTS Inhibition percentages (%) ([6]; 50 µg/ml): 81.43 ± 0.08^h % | ABTS Inhibition percentages (%) ([6]; 100 µg/ml): 87.26 ± 0.13^i %
